# Measured values reported in patent US20120189564A1, “COMPOSITIONS OF VITAMIN C DERIVATIVE AND PORTULACA EXTRACT” (PRESPERSE CORPORATION, priority 2011, published 2012).
# System: B16-F10 melanoma cells
# Assay: Melanin formation inhibition (without UV stress) in B16-F10 melanoma cells
# Type: cell-based
# Protocol: Experiments were conducted to evaluate suppression of melanin synthesis using B16 melanoma cells by Portulaca Extract, ASG and Portulaca/ASG blend with and without UV stress at different levels. These experiments were performed to quantify skin whitening effects of the blend versus the individual components of the blend. Test (I)—Melanin Formation Inhibition (without UV Stress) Two sets of B16-F10 melanoma cells (ATCC 6475) were seeded at 6 well multi-plates with 1×10^5 density and cultured in Culbecco's Modified Eagle's Medium (DMEM) supplemented 10% fetal bovine serum (FBS) at 37° C. for 24 hours. The medium was exchanged with fresh DMEM media containing 10% FBS and test samples were added and cultured for 72 hours at 37° C. One set of cultured cells was washed with 2 ml of PBS (phosphate buffered saline) and cells were dissolved by 250 ul of 1N NaOH and melanin content was measured by UV absorbance at 450 nm. The other set of cells was incubated after adding 200 ul of MTT (2.5 mg/ml) at 37° C. for 4 hours. Culture medium was discarded and cells were dissolved for 10 minutes at room temperature by adding 2 ml of DMSO. After the cells were completely dissolved, UV absorbance was measured at 570 nm. […] [table]
smiles,measurement,setting,value
"O=C1O[C@H]([C@H](O)CO)C(O)=C1O[C@H]1O[C@H](CO)[C@@H](O)[C@H](O)[C@H]1O [ASG, 2-0-α-D-glucopyranosyl-L-ascorbic acid]",melanin formation inhibition,"1.2% of ASG, 72 hours, FIGS. 1 and 2",about 20%
same,melanin formation inhibition (result in words),"B16-F10 cells, concentration series of Table 2",melanin formation inhibition in a dose dependent manner
